Here are results for 11 compounds from ChEMBL document CHEMBL1201862, “PubChem BioAssay data set” (2004).

Some test systems named below: HT-29; BT-549; HCT-116; HCC 2998; OVCAR-4; K562; A498; SW-620; HOP-92; IGROV-1; UACC-257; PC-3; RPMI-8226; LOX IMVI; EKVX; MDA-MB-231; COLO 205; SK-OV-3; NCI-H522.
Holding throughout (test): growth of human tumour cells (NCI), 48 h

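Briefly, cells in 96-well plates were exposed to five compound concentrations for 48 h, and endpoints were estimated by linear interpolation. At the GI50, growth is halved.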 The source made the active and inactive calls. Cut-off read from the data, not from the text of the source: active = GI50 up to about 1.1 µM and inactive = higher.

For `CN(C)CC1CCC/C(=C\c2ccc(OC(=O)/C=C/c3ccccc3)cc2)C1=O` (stereo unspecified), the GI50 with HT-29 was 1.87 µM (inactive); in the test with BT-549, 2.11 µM (inactive); in the test with HCT-116 it was 1.34 µM (inactive); in the test on HCC 2998 it was 10.5 µM (inactive); in the test with OVCAR-4, 2.35 µM (inactive); with K562, 3.06 µM (inactive). The GI50 is 7.28 µM (inactive) in the test on A498; 1.95 µM (inactive) in the test on SW-620; 2.22 µM (inactive) in the test on HOP-92; 3.85 µM (inactive) in the test on IGROV-1; 3.48 µM (inactive) in the test on UACC-257; 4.74 µM (inactive) in the test with PC-3. Also, the GI50 was 0.656 µM (active) in the test with RPMI-8226; 0.538 µM (active) with LOX IMVI; 2.18 µM (inactive) in the test on EKVX; 2.73 µM (inactive) with MDA-MB-231; 1.99 µM (inactive) in the test with COLO 205; 24.2 µM (inactive) in the test with SK-OV-3.

Consider `Cc1ccc(NC(S)=Nc2c(C)n(C)n(-c3ccccc3)c2=O)cc1`, for which the GI50 in the test with HT-29, with BT-549, with HCT-116, in the test with HCC 2998, in the test with K562 and with NCI-H522 was > 100 µM (inactive) each time. Moreover, the GI50 in the test with A498, with SW-620, in the test with HOP-92, in the test with IGROV-1, in the test with UACC-257 and with PC-3 was > 100 µM (inactive) throughout. Moreover, the GI50 in the test on RPMI-8226, in the test on LOX IMVI, with EKVX, in the test on MDA-MB-231, in the test with COLO 205 and in the test with SK-OV-3 was > 100 µM (inactive) throughout.

For the compound `CC1=CC[C@@H]2[C@@H](CC[C@@]2(C)O)C(C)(C)[C@H]1CC[C@@H]1[C@@]2(C)CC[C@@H](O)C(C)(C)O[C@@H]2CC[C@]1(C)O`, the GI50 in the test on BT-549 was 18.4 µM (inactive); in the test with HCT-116, 14 µM (inactive); with HCC 2998, 17.5 µM (inactive); in the test on OVCAR-4 it was 37.2 µM (inactive); with K562 it was 15.3 µM (inactive); in the test with A498, 15 µM (inactive). The GI50 with SW-620 was 31.8 µM (inactive); in the test on HOP-92 it was 12.5 µM (inactive); in the test with UACC-257, 25.6 µM (inactive); in the test with PC-3 it was 40.6 µM (inactive); with RPMI-8226 it was 18.9 µM (inactive); with LOX IMVI it was 16.3 µM (inactive). Further, the GI50 is 17.5 µM (inactive) in the test on MDA-MB-231, 19.4 µM (inactive) in the test on COLO 205 and 35.9 µM (inactive) in the test on SK-OV-3.

For the compound `CC1CC[C@@]2(OC1)OC1C[C@H]3[C@@H]4CCC5CC(O)CC[C@]5(C)[C@H]4C/C(=N\N(C)C)[C@]3(C)C1[C@@H]2C` (stereo partly specified), the GI50 with HT-29 was 19.6 µM (inactive); with BT-549 it was 29.4 µM (inactive); with HCT-116 it was 23.3 µM (inactive); in the test with HCC 2998, 19.1 µM (inactive); with OVCAR-4, 38.3 µM (inactive); with K562 it was 28.2 µM (inactive). Also, the GI50 with A498 is 23 µM (inactive); in the test with SW-620, 40.3 µM (inactive); with HOP-92, 52.8 µM (inactive); in the test on IGROV-1, 28.7 µM (inactive); in the test on UACC-257, 38.8 µM (inactive); with PC-3 it was 25.6 µM (inactive). The GI50 in the test with RPMI-8226 is 26.9 µM (inactive); in the test with LOX IMVI it was 26.7 µM (inactive); in the test with MDA-MB-231, 19.2 µM (inactive); in the test with COLO 205, 19.9 µM (inactive); in the test with SK-OV-3, 18.7 µM (inactive).

Take `COc1ccccc1C(O)[C@@H]1C[C@@H]2[C@H]3CC[C@@](C)([C@@H]2O1)C3(C)C` (stereo partly specified): the GI50 with HT-29 was 19.4 µM (inactive); in the test with BT-549 it was 18.1 µM (inactive); in the test on HCT-116, 20.5 µM (inactive); in the test on HCC 2998 it was 20.8 µM (inactive); in the test with K562, 21.3 µM (inactive); in the test on NCI-H522, 17.4 µM (inactive). In addition, the GI50 in the test on A498 was 15.4 µM (inactive); with SW-620, 16.1 µM (inactive); with HOP-92, 15.8 µM (inactive); in the test on IGROV-1 it was 15.9 µM (inactive); in the test on UACC-257, 20.3 µM (inactive); with PC-3 it was 20.7 µM (inactive). For the same compound, the GI50 in the test with RPMI-8226 is 25.2 µM (inactive); in the test with LOX IMVI it was 18.4 µM (inactive); in the test with EKVX, 45.2 µM (inactive); in the test with MDA-MB-231 it was 17.3 µM (inactive); with COLO 205, 19.1 µM (inactive); in the test on SK-OV-3, 27.4 µM (inactive).

Regarding `CCCCCCCC(CC(=O)NC(CO)C(=O)NC(CO)CC(C)C)OC(=O)CC(CCCCCCC)OC(=O)CC(CCCCCCC)OC1OC(C)C(O)C(OC2OC(C)C(O)C(O)C2OC(C)=O)C1O` (stereo unspecified), the GI50 with HT-29 was 3.6 µM (inactive); in the test on BT-549, 12.5 µM (inactive); in the test with HCT-116, 3.94 µM (inactive); in the test on HCC 2998, 12.5 µM (inactive); in the test on OVCAR-4, 5.64 µM (inactive); in the test with K562 it was 4.13 µM (inactive). The GI50 with NCI-H522 was 12.6 µM (inactive); in the test with A498, 15.8 µM (inactive); in the test with SW-620 it was 8.75 µM (inactive); in the test on HOP-92, 10.2 µM (inactive); in the test with IGROV-1, 10.9 µM (inactive); in the test with UACC-257, 2.99 µM (inactive). Besides, the GI50 in the test on PC-3 is 4.06 µM (inactive); in the test on EKVX it was 14.3 µM (inactive); in the test on MDA-MB-231, 9.38 µM (inactive); with COLO 205, 2.04 µM (inactive); in the test on SK-OV-3 it was 16.6 µM (inactive).

As to `CC1(C)N=[N+]([O-])C1(C)C`, the GI50 in the test with HT-29, in the test on BT-549, with HCT-116, in the test with HCC 2998, in the test on OVCAR-4 and with K562 was > 100 µM (inactive) each time. The GI50 in the test with NCI-H522, with A498, with SW-620, in the test on IGROV-1, with UACC-257 and in the test with PC-3 was > 100 µM (inactive) throughout. For the same compound, the GI50 in the test on RPMI-8226, in the test on LOX IMVI, in the test on EKVX, in the test with MDA-MB-231, with COLO 205 and with SK-OV-3 was > 100 µM (inactive) throughout.

Regarding `CC(C)(C)OC(=O)n1c(-c2ccccc2F)cc(=O)c2cc3c(cc21)OCO3`, the GI50 was 0.0497 µM (active) with HT-29; 19.8 µM (inactive) in the test with BT-549; 0.0426 µM (active) with HCT-116; 0.0715 µM (active) in the test on HCC 2998; 0.0267 µM (active) in the test with NCI-H522; 0.141 µM (active) with A498. In addition, the GI50 was 0.0596 µM (active) in the test with SW-620; 7.24 µM (inactive) in the test with HOP-92; 0.0391 µM (active) in the test with PC-3; 0.0364 µM (active) in the test with RPMI-8226; 0.111 µM (active) with LOX IMVI; 3.68 µM (inactive) in the test with MDA-MB-231. Further, the GI50 is 0.0942 µM (active) in the test with COLO 205 and 0.12 µM (active) with SK-OV-3.

As for `Cc1nc2c(Br)cc(Br)cc2c(=O)n1-c1ccccc1NC1OC(CO)C(O)C(O)C1O` (stereo unspecified), the GI50 in the test with HT-29, in the test with BT-549, in the test with HCT-116, in the test on HCC 2998, with OVCAR-4 and in the test with K562 was > 100 µM (inactive) each time. Besides, the GI50 in the test on NCI-H522, in the test with A498, with SW-620, in the test on HOP-92, with IGROV-1 and in the test with UACC-257 was > 100 µM (inactive) in each case. Further, the GI50 in the test with PC-3, in the test on RPMI-8226, in the test with LOX IMVI, in the test on EKVX, with MDA-MB-231 and in the test with COLO 205 was > 100 µM (inactive) throughout. Besides, the GI50 with SK-OV-3 was > 100 µM (inactive).

With `O=S(=O)(O)c1ccc2c(/N=N/c3c(O)ccc4ccccc34)cccc2c1`, the GI50 in the test on HT-29 was > 100 µM (inactive); with BT-549, > 100 µM (inactive); in the test with HCT-116, > 100 µM (inactive); in the test on OVCAR-4, > 100 µM (inactive); in the test with K562, 34.3 µM (inactive); in the test on NCI-H522, > 100 µM (inactive). For the same compound, the GI50 in the test on A498 was > 100 µM (inactive); in the test on SW-620 it was > 100 µM (inactive); in the test with HOP-92, > 100 µM (inactive); with IGROV-1, 65.8 µM (inactive); in the test with UACC-257, > 100 µM (inactive); with PC-3, > 100 µM (inactive). Moreover, the GI50 in the test with RPMI-8226 was > 100 µM (inactive); in the test on LOX IMVI, > 100 µM (inactive); with EKVX it was 61.5 µM (inactive); with MDA-MB-231, > 100 µM (inactive); in the test with COLO 205, > 100 µM (inactive); in the test on SK-OV-3, > 100 µM (inactive).

On to `N#Cc1c(N)nc2[nH]nc(N)c2c1-c1ccccc1`, for which the GI50 in the test on HT-29 was 12.2 µM (inactive); in the test with BT-549 it was 7.43 µM (inactive); with HCT-116 it was 7.29 µM (inactive); in the test on HCC 2998 it was 16.5 µM (inactive); with OVCAR-4, 11.3 µM (inactive); with K562, > 41.8 µM (inactive). The GI50 is 3.72 µM (inactive) with NCI-H522; 1.61 µM (inactive) in the test on A498; 26.9 µM (inactive) in the test on SW-620; 2.56 µM (inactive) in the test with HOP-92; 2.8 µM (inactive) with IGROV-1; 21.1 µM (inactive) with UACC-257. Besides, the GI50 with PC-3 was 5.13 µM (inactive); in the test with RPMI-8226 it was > 24.3 µM (inactive); in the test with LOX IMVI, 3.89 µM (inactive); in the test with EKVX, 7.74 µM (inactive); with MDA-MB-231 it was 4.48 µM (inactive); in the test with COLO 205, 5.65 µM (inactive). Moreover, in the test with SK-OV-3, the GI50 was 4.02 µM (inactive).
